Source: paper PMC9299836 (eLife, 2022)

Biological target: mGluR2 (Mus musculus, UniProt Q14BI2, A548F)
Assay: smFRET of azi-CRD: cross-correlation of donor and acceptor intensities (CRD dynamics) and HMM transition density plots;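 further: single detergent-solubilized receptors captured on antibody-coated flow cells via C-terminal FLAG-tag, imaged by smFRET, donor and acceptor intensity traces from three independent biological replicates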
Conditions: for CRD dynamics by cross-correlation of donor and acceptor intensities: azi-CRD

mGluR2, sequence (Q14BI2 19-872 A548F): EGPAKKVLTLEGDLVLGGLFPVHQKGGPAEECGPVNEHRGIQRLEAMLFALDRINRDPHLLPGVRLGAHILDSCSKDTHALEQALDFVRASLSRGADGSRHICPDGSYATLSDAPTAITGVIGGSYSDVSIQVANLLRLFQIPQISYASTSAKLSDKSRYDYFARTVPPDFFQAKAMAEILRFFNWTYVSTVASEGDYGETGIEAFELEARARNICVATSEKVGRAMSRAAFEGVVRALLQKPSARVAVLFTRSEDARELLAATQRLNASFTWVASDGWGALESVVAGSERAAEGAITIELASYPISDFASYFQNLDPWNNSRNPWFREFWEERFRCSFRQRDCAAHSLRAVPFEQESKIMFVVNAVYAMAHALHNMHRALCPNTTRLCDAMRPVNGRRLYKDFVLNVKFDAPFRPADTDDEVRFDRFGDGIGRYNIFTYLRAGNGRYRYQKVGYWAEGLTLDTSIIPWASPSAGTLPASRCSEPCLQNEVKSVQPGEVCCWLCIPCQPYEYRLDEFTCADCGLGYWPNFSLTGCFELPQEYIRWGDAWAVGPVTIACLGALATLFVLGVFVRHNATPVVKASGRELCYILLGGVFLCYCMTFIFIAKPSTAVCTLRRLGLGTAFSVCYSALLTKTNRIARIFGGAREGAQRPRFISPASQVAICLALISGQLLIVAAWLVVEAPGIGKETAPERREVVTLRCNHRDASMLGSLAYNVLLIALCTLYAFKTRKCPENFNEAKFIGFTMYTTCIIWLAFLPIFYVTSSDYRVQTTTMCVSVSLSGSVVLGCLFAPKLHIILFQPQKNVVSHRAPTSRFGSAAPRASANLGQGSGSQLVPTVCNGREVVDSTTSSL

Substance: MNI-137
- Cross Correlation, Mean (15μM Glutamate + 5μM MNI-137, Time 0.95 s): -0.03855
- Cross Correlation, Mean (15μM Glutamate + 5μM MNI-137, Time 1 s): -0.03542
- Cross Correlation, Mean (15μM Glutamate + 5μM MNI-137, Time 1.05 s): -0.03118
- Cross Correlation, Mean (15μM Glutamate + 5μM MNI-137, Time 1.1 s): -0.03249
- Cross Correlation, Mean (15μM Glutamate + 5μM MNI-137, Time 1.15 s): -0.02794
- Cross Correlation, Mean (15μM Glutamate + 5μM MNI-137, Time 1.2 s): -0.03365
- Cross Correlation, Mean (15μM Glutamate + 5μM MNI-137, Time 1.25 s): -0.03207
- Cross Correlation, Mean (15μM Glutamate + 5μM MNI-137, Time 1.3 s): -0.02844
- Cross Correlation, Mean (15μM Glutamate + 5μM MNI-137, Time 1.35 s): -0.02868
- Cross Correlation, Mean (15μM Glutamate + 5μM MNI-137, Time 1.4 s): -0.02437
- Cross Correlation, Mean (15μM Glutamate + 5μM MNI-137, Time 1.45 s): -0.02342
- Cross Correlation, Mean (15μM Glutamate + 5μM MNI-137, Time 1.55 s): -0.02529
- Cross Correlation, Mean (15μM Glutamate + 5μM MNI-137, Time 1.6 s): -0.02454
- Cross Correlation, Mean (15μM Glutamate + 5μM MNI-137, Time 1.65 s): -0.02035
- Cross Correlation, Mean (15μM Glutamate + 5μM MNI-137, Time 1.75 s): -0.02381
- Cross Correlation, Mean (15μM Glutamate + 5μM MNI-137, Time 1.8 s): -0.02039
- Cross Correlation, Mean (15μM Glutamate + 5μM MNI-137, Time 1.85 s): -0.02364
- Cross Correlation, Mean (15μM Glutamate + 5μM MNI-137, Time 1.9 s): -0.02018
- Cross Correlation, Mean (15μM Glutamate + 5μM MNI-137, Time 1.95 s): -0.01877
- Cross Correlation, Mean (1000μM Glutamate + 5μM MNI-137, Time 0.2 s): -0.2112
- Cross Correlation, Mean (1000μM Glutamate + 5μM MNI-137, Time 0.25 s): -0.1919
- Cross Correlation, Mean (1000μM Glutamate + 5μM MNI-137, Time 0.3 s): -0.1758
- Cross Correlation, Mean (1000μM Glutamate + 5μM MNI-137, Time 0.35 s): -0.1629
- Cross Correlation, Mean (1000μM Glutamate + 5μM MNI-137, Time 0.4 s): -0.1514
- Cross Correlation, Mean (1000μM Glutamate + 5μM MNI-137, Time 0.45 s): -0.1426
- Cross Correlation, Mean (1000μM Glutamate + 5μM MNI-137, Time 0.5 s): -0.1307
- Cross Correlation, Mean (1000μM Glutamate + 5μM MNI-137, Time 0.55 s): -0.1241
- Cross Correlation, Mean (1000μM Glutamate + 5μM MNI-137, Time 0.6 s): -0.1177
- Cross Correlation, Mean (1000μM Glutamate + 5μM MNI-137, Time 0.65 s): -0.1093
- Cross Correlation, Mean (1000μM Glutamate + 5μM MNI-137, Time 0.7 s): -0.1013
- Cross Correlation, Mean (1000μM Glutamate + 5μM MNI-137, Time 0.75 s): -0.09952
- Cross Correlation, Mean (1000μM Glutamate + 5μM MNI-137, Time 0.8 s): -0.09295
- Cross Correlation, Mean (1000μM Glutamate + 5μM MNI-137, Time 0.85 s): -0.08726
- Cross Correlation, Mean (1000μM Glutamate + 5μM MNI-137, Time 0.9 s): -0.08538
- Cross Correlation, Mean (1000μM Glutamate + 5μM MNI-137, Time 0.95 s): -0.07938
- Cross Correlation, Mean (1000μM Glutamate + 5μM MNI-137, Time 1 s): -0.07503
- Cross Correlation, Mean (1000μM Glutamate + 5μM MNI-137, Time 1.05 s): -0.07213
- Cross Correlation, Mean (1000μM Glutamate + 5μM MNI-137, Time 1.1 s): -0.06374
- Cross Correlation, Mean (1000μM Glutamate + 5μM MNI-137, Time 1.15 s): -0.06369
- Cross Correlation, Mean (1000μM Glutamate + 5μM MNI-137, Time 1.2 s): -0.0627
- Cross Correlation, Mean (1000μM Glutamate + 5μM MNI-137, Time 1.3 s): -0.05443
- Cross Correlation, Mean (1000μM Glutamate + 5μM MNI-137, Time 1.35 s): -0.05075
- Cross Correlation, Mean (1000μM Glutamate + 5μM MNI-137, Time 1.4 s): -0.05008
- Cross Correlation, Mean (1000μM Glutamate + 5μM MNI-137, Time 1.45 s): -0.0474
- Cross Correlation, Mean (1000μM Glutamate + 5μM MNI-137, Time 1.5 s): -0.04472
- Cross Correlation, Mean (1000μM Glutamate + 5μM MNI-137, Time 1.55 s): -0.04463
- Cross Correlation, Mean (1000μM Glutamate + 5μM MNI-137, Time 1.65 s): -0.03966
- Cross Correlation, Mean (1000μM Glutamate + 5μM MNI-137, Time 1.7 s): -0.03894
- Cross Correlation, Mean (1000μM Glutamate + 5μM MNI-137, Time 1.75 s): -0.03942
- Cross Correlation, Mean (1000μM Glutamate + 5μM MNI-137, Time 1.8 s): -0.03907
- Cross Correlation, Mean (1000μM Glutamate + 5μM MNI-137, Time 1.9 s): -0.0321
- Cross Correlation, Mean (1000μM Glutamate + 5μM MNI-137, Time 1.95 s): -0.034
- CRD dynamics by cross-correlation of donor and acceptor intensities (5 μM modulator with 15 μM and 1 mM glutamate): glutamate concentration-dependent increase in the CRD dynamics
- CRD dynamics by cross-correlation of donor and acceptor intensities (5 μM modulator, absence of glutamate): reduced CRD dynamics
